Assay results reported in ChEMBL document CHEMBL3272189, “Orally active esters of cephalosporin antibiotics. Synthesis and biological properties of acyloxymethyl esters of 7-(D-2-amino-2-phenylacetamido)-3-[5-methyl-(1,3,4-thiadiazol-2-yl)thiomethyl]-3-cephem-4-carboxylic acid” (J Med Chem, 1977).
In brackets after ≈: the same amount, converted by molar mass.

Legend:
[1] = Half life in 0.1 M sodium phosphate buffer at 50 ug/ml at pH 6.5; assay type: physicochemical
[2] = Drug absorption in Lai:COX (Standard)BR mouse assessed as compound remaining in gastrointestinal tract at 17 mg/kg, po after 20 mins; assay type: ADME, organism-based; parameters: dose 17 mg/kg, route oral; conditions: read-out: Stability
[3] = Drug excretion in Lai:COX (Standard)BR mouse urine at 17 mg/kg, po after 60 mins; assay type: ADME, organism-based; parameters: dose 17 mg/kg, route oral; conditions: read-out: Drug excretion
[4] = Drug absorption in Lai:COX (Standard)BR mouse assessed as compound remaining in gastrointestinal tract at 17 mg/kg, po after 40 mins; assay type: ADME, organism-based; parameters: dose 17 mg/kg, route oral; conditions: read-out: Stability
[5] = Drug excretion in Lai:COX (Standard)BR mouse urine at 17 mg/kg, po after 120 mins; assay type: ADME, organism-based; parameters: dose 17 mg/kg, route oral; conditions: read-out: Drug excretion
[6] = Drug excretion in Lai:COX (Standard)BR mouse urine at 17 mg/kg, po after 40 mins; assay type: ADME, organism-based; parameters: dose 17 mg/kg, route oral; conditions: read-out: Drug excretion
[7] = Drug excretion in Lai:COX (Standard)BR mouse urine at 17 mg/kg, po after 20 mins; assay type: ADME, organism-based; parameters: dose 17 mg/kg, route oral; conditions: read-out: Drug excretion
[8] = Drug excretion in Lai:COX (Standard)BR mouse urine at 17 mg/kg, po after 100 mins; assay type: ADME, organism-based; parameters: dose 17 mg/kg, route oral; conditions: read-out: Drug excretion
[9] = Half life in 0.1 M sodium phosphate buffer at 50 ug/ml at pH 7.5; assay type: physicochemical
[10] = Drug excretion in Lai:COX (Standard)BR mouse urine at 17 mg/kg, po after 80 mins; assay type: ADME, organism-based; parameters: dose 17 mg/kg, route oral; conditions: read-out: Drug excretion
[11] = Half life in 0.1 M sodium phosphate buffer at 50 ug/ml at pH 4.5; assay type: physicochemical
[12] = Drug excretion in Lai:COX (Standard)BR mouse urine at 17 mg/kg, sc after 120 mins; assay type: ADME, organism-based; parameters: dose 17 mg/kg, route subcutaneous; conditions: read-out: Drug excretion
Serratia marcescens = assay: Antibacterial activity against Serratia marcescens assessed as growth inhibition by gradient-plate assay; assay type: functional
[13] = Drug excretion in Lai:COX (Standard)BR mouse urine at 17 mg/kg, sc after 100 mins; assay type: ADME, organism-based; parameters: dose 17 mg/kg, route subcutaneous; conditions: read-out: Drug excretion
[14] = Drug excretion in Lai:COX (Standard)BR mouse urine at 17 mg/kg, sc after 5 mins; assay type: ADME, organism-based; parameters: dose 17 mg/kg, route subcutaneous; conditions: read-out: Drug excretion
[15] = Drug excretion in Lai:COX (Standard)BR mouse urine at 17 mg/kg, sc after 40 mins; assay type: ADME, organism-based; parameters: dose 17 mg/kg, route subcutaneous; conditions: read-out: Drug excretion
Klebsiella pneumoniae = assay: Antibacterial activity against Klebsiella pneumoniae assessed as growth inhibition by gradient-plate assay; assay type: functional
Escherichia coli = assay: Antibacterial activity against Escherichia coli assessed as growth inhibition by gradient-plate assay; assay type: functional
[16] = Drug excretion in Lai:COX (Standard)BR mouse urine at 17 mg/kg, sc after 60 mins; assay type: ADME, organism-based; parameters: dose 17 mg/kg, route subcutaneous; conditions: read-out: Drug excretion
Blood = assay: Drug uptake in Lai:COX (Standard)BR mouse blood at 17 mg/kg, po; assay type: ADME, organism-based; parameters: dose 17 mg/kg, route oral; conditions: in vivo
Klebsiella aerogenes = assay: Antibacterial activity against Enterobacter aerogenes assessed as growth inhibition by gradient-plate assay; assay type: functional
Staphylococcus aureus = assay: Antibacterial activity against penicillin-resistant, coagulase-positive Staphylococcus aureus assessed as growth inhibition by gradient-plate assay; assay type: functional
[17] = Drug excretion in Lai:COX (Standard)BR mouse urine at 17 mg/kg, sc after 80 mins; assay type: ADME, organism-based; parameters: dose 17 mg/kg, route subcutaneous; conditions: read-out: Drug excretion
[18] = Drug excretion in Lai:COX (Standard)BR mouse urine at 17 mg/kg, sc after 20 mins; assay type: ADME, organism-based; parameters: dose 17 mg/kg, route subcutaneous; conditions: read-out: Drug excretion
[19] = Antibacterial activity against Salmonella heidelberg assessed as growth inhibition by gradient-plate assay; assay type: functional, Salmonella enterica subsp. enterica serovar Heidelberg; conditions: Salmonella enterica
Shigella sp. = assay: Antibacterial activity against Shigella sp. assessed as growth inhibition by gradient-plate assay; assay type: functional
[20] = Drug excretion in Lai:COX (Standard)BR mouse urine at 17 mg/kg, po after 5 mins; assay type: ADME, organism-based; parameters: dose 17 mg/kg, route oral; conditions: read-out: Drug excretion

Row | SMILES | half-life at 50 ug/ml [1] | remaining at 20 min [2] | dose excreted at 1 h [3] | remaining at 40 min [4] | dose excreted at 2 h [5] | dose excreted at 40 min [6] | dose excreted at 20 min [7] | dose excreted at 100 min [8] | half-life at 50 ug/ml [9] | dose excreted at 80 min [10] | half-life at 50 ug/ml [11] | MIC (Serratia marcescens) | MIC (Klebsiella pneumoniae) | MIC (Escherichia coli) | MIC (Klebsiella aerogenes) | MIC (Staphylococcus aureus) | MIC [19] | MIC (Shigella sp.) | also measured
1 | Cc1nnc(SCC2=C(C(=O)O)N3C(=O)[C@@H](NC(=O)[C@H](N)c4ccccc4)[C@H]3SC2)s1 | 76 min | 81.2% | 13.2% | 67.5% | 14.1% | 8.4% | 2.8% | 22.4% | 54 min | 17.5% | 47 h | 26.5 µg/mL (≈ 55.5 µM) | 0.6 µg/mL (≈ 1.26 µM) | 1 µg/mL (≈ 2.09 µM) | 0.8 µg/mL (≈ 1.68 µM) | 0.7 µg/mL (≈ 1.47 µM) | 1 µg/mL (≈ 2.09 µM) | 1 µg/mL (≈ 2.09 µM) | dose excreted at 2 h [12]: 54.1%; dose excreted at 100 min [13]: 54.1%; dose excreted at 5 min [14]: 2.8%; dose excreted at 40 min [15]: 46.5%; dose excreted at 1 h [16]: 50.7%; Drug uptake (Blood): Active; dose excreted at 80 min [17]: 56.7%; dose excreted at 20 min [18]: 25%
2 | CC1=C(C(=O)O)N2C(=O)[C@@H](NC(=O)[C@H](N)c3ccccc3)[C@H]2SC1 [CEPHALEXIN ANHYDROUS] | – | – | – | – | – | – | – | – | – | – | – | 140 µg/mL (≈ 403 µM) | 7 µg/mL (≈ 20.1 µM) | 8.5 µg/mL (≈ 24.5 µM) | 6.8 µg/mL (≈ 19.6 µM) | 4.5 µg/mL (≈ 13 µM) | 5.5 µg/mL (≈ 15.8 µM) | 9 µg/mL (≈ 25.9 µM) | –

Second part, led by results:

Row | half-life at 50 ug/ml [1] | remaining at 20 min [2] | dose excreted at 1 h [3] | remaining at 40 min [4] | dose excreted at 2 h [5] | dose excreted at 40 min [6] | dose excreted at 20 min [7] | dose excreted at 100 min [8] | half-life at 50 ug/ml [9] | dose excreted at 80 min [10] | half-life at 50 ug/ml [11] | SMILES | MIC (Serratia marcescens) | MIC (Klebsiella pneumoniae) | MIC (Escherichia coli) | MIC (Klebsiella aerogenes) | MIC (Staphylococcus aureus) | MIC [19] | MIC (Shigella sp.) | also measured
3 | 60 min | 39.1% | 33.1% | 31.5% | 36.8% | 32.5% | 20.4% | 38.3% | 25 min | 36.1% | 27 h | CC(=O)OCOC(=O)C1=C(CSc2nnc(C)s2)CS[C@@H]2[C@H](NC(=O)[C@H](N)c3ccccc3)C(=O)N12.Cl | – | – | – | – | – | – | – | –
4 | 25 min | 59% | 35% | 35% | – | 22.1% | 8.3% | 34% | 15 min | 30.5% | – | Cc1nnc(SCC2=C(C(=O)OC3OC(=O)c4ccccc43)N3C(=O)[C@@H](NC(=O)[C@H](N)c4ccccc4)[C@H]3SC2)s1.Cl (stereo not given in full) | – | – | – | – | – | – | – | –
5 | 45 min | 40.5% | 43.2% | 25% | 41.5% | 38.9% | 20.8% | 41.8% | 25 min | 48.2% | 32 h | Cc1nnc(SCC2=C(C(=O)OCOC(=O)C(C)(C)C)N3C(=O)[C@@H](NC(=O)[C@H](N)c4ccccc4)[C@H]3SC2)s1.Cl | – | – | – | – | – | – | – | dose excreted at 5 min [20]: 3.6%
